Assay results taken from the supplement of paper PMC8671470.
± gives the standard deviation of the averaged measurements.

Assays:
Settings in all cases: 72 h
HL-60 [1] = experiment: cell viability (% survival relative to DMSO control); higher = less cytotoxic
Method in brief: (§1)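 For each screen, HL-60 cells in RPMI 1640 with 10% FBS carried either DMSO or 100 nM of one of three metabolic inhibitors while the full library was applied at five tenfold concentrations, 1–10,000 nM, in duplicate. Plates were 384-well and were kept 72 h at 37 °C, 5% CO2. Viability, measured by CellTiter-Glo, was normalised to wells with DMSO and with 10 μM proteasome inhibitor. Where area under the curve appears, it was fitted by four-parameter log-logistic models in drc and PharmacoGx.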

HL-60 [2] = experiment: area under dose-response curve (viability, 1 nM-10 uM) (fraction (0-1)); higher = more sensitive
Method in brief: as §1

KG-1 = system: KG-1
Method in brief: (§2)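 Fifteen myeloid leukaemia lines were incubated for 72 h at 37 °C with 5% CO2 across five tenfold doses from 1 to 10,000 nM, in duplicate. ATP luminescence was normalised to vehicle and to a positive control at 10 µM and fitted with a four-parameter log-logistic model. The IC50 came from these dose–response fits.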

THP-1 = system: THP-1
Method in brief: as §2

BV-173 = system: BV-173
Method in brief: as §2

NOMO-1 = system: NOMO-1
Method in brief: as §2

K-562 = system: K-562
Method in brief: as §2

MV4-11 = system: MV4-11
Method in brief: as §2

MOLM-13 = system: MOLM-13
Method in brief: as §2

SHI-1 = system: SHI-1
Method in brief: as §2

HL-60 [3] = system: HL-60
Method in brief: as §2

KU-812 = system: KU-812
Method in brief: as §2

LAMA-84 = system: LAMA-84
Method in brief: as §2

Mono-Mac-6 = system: Mono-Mac-6
Method in brief: as §2

KCL-22 = system: KCL-22
Method in brief: as §2

ML-2 = system: ML-2
Method in brief: as §2

HEL = system: HEL
Method in brief: as §2

[4] = 0.001 µM, co-treatment: AZD3965 100 nM
[5] = 0.001 µM, co-treatment: DMSO vehicle
[6] = 0.001 µM, co-treatment: GSK2194069 100 nM
[7] = 0.001 µM, co-treatment: pictilisib 100 nM
[8] = 0.01 µM, co-treatment: AZD3965 100 nM
[9] = 0.01 µM, co-treatment: DMSO vehicle
[10] = 0.01 µM, co-treatment: GSK2194069 100 nM
[11] = 0.01 µM, co-treatment: pictilisib 100 nM
[12] = 0.1 µM, co-treatment: AZD3965 100 nM
[13] = 0.1 µM, co-treatment: DMSO vehicle
[14] = 0.1 µM, co-treatment: GSK2194069 100 nM
[15] = 0.1 µM, co-treatment: pictilisib 100 nM
[16] = 1 µM, co-treatment: AZD3965 100 nM
[17] = 1 µM, co-treatment: DMSO vehicle
[18] = 1 µM, co-treatment: GSK2194069 100 nM
[19] = 1 µM, co-treatment: pictilisib 100 nM
[20] = 10 µM, co-treatment: AZD3965 100 nM
[21] = 10 µM, co-treatment: DMSO vehicle
[22] = 10 µM, co-treatment: GSK2194069 100 nM
[23] = 10 µM, co-treatment: pictilisib 100 nM
[24] = co-treatment: GSK2194069 100 nM
[25] = co-treatment: pictilisib 100 nM

| SMILES | cell viability (HL-60 [1]; [4]) [%] | cell viability (HL-60 [1]; [5]) [%] | cell viability (HL-60 [1]; [6]) [%] | cell viability (HL-60 [1]; [7]) [%] | cell viability (HL-60 [1]; [8]) [%] | cell viability (HL-60 [1]; [9]) [%] | cell viability (HL-60 [1]; [10]) [%] | cell viability (HL-60 [1]; [11]) [%] | cell viability (HL-60 [1]; [12]) [%] | cell viability (HL-60 [1]; [13]) [%] | cell viability (HL-60 [1]; [14]) [%] | cell viability (HL-60 [1]; [15]) [%] | cell viability (HL-60 [1]; [16]) [%] | cell viability (HL-60 [1]; [17]) [%] | cell viability (HL-60 [1]; [18]) [%] | cell viability (HL-60 [1]; [19]) [%] | cell viability (HL-60 [1]; [20]) [%] | cell viability (HL-60 [1]; [21]) [%] | cell viability (HL-60 [1]; [22]) [%] | cell viability (HL-60 [1]; [23]) [%] | area under dose-response curve (HL-60 [2]; co-treatment: AZD3965 100 nM) | area under dose-response curve (HL-60 [2]; co-treatment: DMSO vehicle) | area under dose-response curve (HL-60 [2]; [24]) | area under dose-response curve (HL-60 [2]; [25]) | IC50 (cell viability) (KG-1) [µM] | IC50 (cell viability) (THP-1) [µM] | IC50 (cell viability) (BV-173) [µM] | IC50 (cell viability) (NOMO-1) [µM] | IC50 (cell viability) (K-562) [µM] | IC50 (cell viability) (MV4-11) [µM] | IC50 (cell viability) (MOLM-13) [µM] | IC50 (cell viability) (SHI-1) [µM] | IC50 (cell viability) (HL-60 [3]) [µM] | IC50 (cell viability) (KU-812) [µM] | IC50 (cell viability) (LAMA-84) [µM] | IC50 (cell viability) (Mono-Mac-6) [µM] | IC50 (cell viability) (KCL-22) [µM] | IC50 (cell viability) (ML-2) [µM] | IC50 (cell viability) (HEL) [µM] |
| --- | --- | --- | --- | --- | --- | --- | --- | --- | --- | --- | --- | --- | --- | --- | --- | --- | --- | --- | --- | --- | --- | --- | --- | --- | --- | --- | --- | --- | --- | --- | --- | --- | --- | --- | --- | --- | --- | --- | --- |
| Cc1c2c(=O)n(-c3ccccc3Cl)[nH]c2cc(=O)n1Cc1ccccn1 | 103 ± 2.9 | 103 ± 1.8 | 101 ± 3.2 | 96.69 ± 0.41 | 103 ± 4.3 | 103 ± 1.3 | 105 ± 5 | 103 ± 18 | 96.9 ± 3.3 | 99.6 ± 8.5 | 98.8 ± 5.7 | 100 ± 1.9 | 98.6 ± 5.4 | 99.25 ± 0.98 | 101 ± 6.8 | 95.2 ± 3.8 | 96.6 ± 4 | 101 ± 8.3 | 96.5 ± 3.9 | 94.8 ± 2.1 | < 0.0301 | < 0.0301 | < 0.0301 | < 0.0301 | – | – | – | – | – | – | – | – | – | – | – | – | – | – | – |
| O=C(Nc1ccccc1)c1cc([N+](=O)[O-])ccc1Cl [GW-9662] | 104 ± 4.8 | 100.8 ± 0.15 | 99.4 ± 3.7 | 106.5 ± 0.24 | 97.15 ± 0.3 | 103.27 ± 0.069 | 92.6 ± 11 | 96.8 ± 5.1 | 102 ± 3.9 | 100 ± 2.6 | 98.7 ± 5.5 | 97.9 ± 2.5 | 100 ± 2.4 | 100.8 ± 0.79 | 96.1 ± 1.9 | 99.3 ± 5.7 | 90.1 ± 20 | 95.6 ± 2.1 | 87.2 ± 8.5 | 94.4 ± 16 | < 0.0301 | < 0.0301 | < 0.0301 | < 0.0301 | – | – | – | – | – | – | – | – | – | – | – | – | – | – | – |
| CC(C(=O)O)c1cccc(C(=O)c2ccccc2)c1 (stereo not drawn) [Ketoprofen] | – | – | – | – | – | – | – | – | – | – | – | – | – | – | – | – | – | – | – | – | – | – | – | – | > 10 | > 10 | > 10 | > 10 | > 10 | > 10 | > 10 | > 10 | > 10 | > 10 | > 10 | > 10 | > 10 | > 10 | > 10 |
